Data as given in patent publication US8461199B2, “Transition metal complexes of a bis[thio-hydrazide amide] compound” (Synta Pharmaceuticals Corp., priority 2008, dated 2013).
pIC50: −log10 of the molar value.

Assays:
[1] = tested on: stage IV metastatic melanoma; conditions: in combination with paclitaxel, relative to patients treated with paclitaxel alone; cited from earlier work
M14 melanoma cells = assay: Cytotoxicity in confluent M14 cells, cell viability by CCK8 assay; format: cell-based; conditions: Homo sapiens, 48 h incubation, 0.25% DMSO, n=4
Method: M14 melanoma cells were seeded at 50,000 cells per well of 96-well plate in 100 μl of Dulbecco's minimum essential medium (DMEM) supplemented with 10% fetal bovine serum. Cells were cultured at 37° C. under 5% CO2-95% air. After 16 hours of incubation, the test compound was added to the cell culture. The compound was first diluted in 100% dimethyl sulfoxide (DMSO) at 400-fold of the final concentrations actually used in the assay. The DMSO solution was next diluted 20 fold with the culture medium, and then finally added to the assay wells at another 20-fold dilution. Assay medium included the test compound with concentrations as indicated with 0.25% DMSO. Cell viability was measured with a CCK8 assay (as described in the Technical Manual for Cell Counting Kit-8, Product #CK04-11, CK04-13 and CK04-20, Dojindo Molecular Technologies, Inc. MD, Tantular, I. S., et al. Tropical Medicine and International Health, 8(6), 569-574, 2003) in the last 15 minutes after a 48 h incubation with the test compound. Each bar of the figure expresses average percent inhibition against vehicle (0.25% DMSO) control (n=4).

Which results are given for `CN(NC(=O)CC(=O)NN(C)C(=S)c1ccccc1)C(=S)c1ccccc1` [compound A, N-malonyl-bis(N′-methyl-N′-thiobenzoylhydrazide)]?
time to progression [1]: increase the time to progression; pIC50 (M14 melanoma cells): < 4.90
